# From paper PMC4503722, “Novel Phenotypic Outcomes Identified for a Public Collection of Approved Drugs from a Publicly Accessible Panel of Assays” (PLoS ONE, 2015)
# Legend:
# INS-1E cells [1] = assay: cells; type: cell-based, rat; conditions: assay number 8; 5 mM glucose
# INS-1E cells [2] = type: cell-based, rat; conditions: assay number 9; 0.1 mM glucose
# [3] = system: nuclear β-catenin in C2C12 cells; assay: cells; type: cell-based; conditions: assay number 5; concentration response
# SW480 = assay: cells; type: cell-based; conditions: assay number 24
# NCI-H716 cells = assay: cells; type: cell-based, Human; conditions: assay number 12
# RKO = assay: cells; type: cell-based; conditions: assay number 29
# STC-1 cell line = type: cell-based, mouse; conditions: assay number 13
# hGSK3b = molecular target: T1, hGSK3b (Homo sapiens, UniProt P49841); assay: Cerep LANCE kinase assay hGSK3b (S1 assay 34); type: biochemical; conditions: assay number 34
# T1 construct: purchased Cerep (LANCE kinase assay platform, contract assay)
# hKDR = molecular target: T2, hKDR (Homo sapiens, UniProt P35968); assay: Cerep LANCE kinase assay hKDR (S1 assay 32); type: biochemical; conditions: assay number 32
# T2 construct: purchased Cerep (LANCE kinase assay platform, contract assay)
# [4] = system: endothelial tube formation in co-cultures of ECFCs and ADSCs treated with VEGF; assay: cells; type: cell-based, human
# SNU-C1 = assay: cells; type: cell-based; conditions: assay number 30
# HCT116 = assay: cells; type: cell-based; conditions: assay number 25; basal
# [5] = system: alkaline phosphatase (ALP) activity in C2C12 cells; type: cell-based; conditions: assay number 6; concentration response
# hJAK2 = molecular target: T3, hJAK2 (Homo sapiens, UniProt O60674); assay: Cerep LANCE kinase assay hJAK2 (S1 assay 33); type: biochemical; conditions: assay number 33
# T3 construct: purchased Cerep (LANCE kinase assay platform, contract assay)
# Colo320 = assay: cells; type: cell-based; conditions: assay number 27
# hFLT3 = molecular target: T4, hFLT3 (Homo sapiens, UniProt P36888); assay: Cerep LANCE kinase assay hFLT3 (S1 assay 35); type: biochemical; conditions: assay number 35
# T4 construct: purchased Cerep (LANCE kinase assay platform, contract assay)
# HeLa cells = assay: cells; type: cell-based; conditions: for Hela CellCycMod PI 2N IC50/EC50: assay number 14; for Hela CellCycMod PI 4N IC50/EC50: assay number 16; for Hela CellCycMod PI MI IC50/EC50: assay number 17; for Hela CellCycMod PI Cell Number IC50/EC50: assay number 18
# HT-29 = assay: cells; type: cell-based; conditions: assay number 28
# DLD-1 = assay: cells; type: cell-based; conditions: assay number 23
# [6] = system: ECFC/ADSC co-culture cell nuclei number
# [7] = system: HCT116 cells treated with a GSK3β inhibitor; assay: cells; type: cell-based; conditions: assay number 26; GSK3b inhibitor pretreated
# hp70S6K1 (RPS6KB1) = molecular target: T5, hp70S6K1 (RPS6KB1) (Homo sapiens, UniProt P23443); assay: Cerep LANCE kinase assay hp70S6K1 (S1 assay 31); type: biochemical; conditions: assay number 31
# T5 construct: purchased Cerep (LANCE kinase assay platform, contract assay)
# 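Wherever 5mMGluc INS1E SecretionMod IC50/EC50 is given: secreted insulin quantified by homogeneous immunoassay.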
# T3 sequence (O60674 whole entry): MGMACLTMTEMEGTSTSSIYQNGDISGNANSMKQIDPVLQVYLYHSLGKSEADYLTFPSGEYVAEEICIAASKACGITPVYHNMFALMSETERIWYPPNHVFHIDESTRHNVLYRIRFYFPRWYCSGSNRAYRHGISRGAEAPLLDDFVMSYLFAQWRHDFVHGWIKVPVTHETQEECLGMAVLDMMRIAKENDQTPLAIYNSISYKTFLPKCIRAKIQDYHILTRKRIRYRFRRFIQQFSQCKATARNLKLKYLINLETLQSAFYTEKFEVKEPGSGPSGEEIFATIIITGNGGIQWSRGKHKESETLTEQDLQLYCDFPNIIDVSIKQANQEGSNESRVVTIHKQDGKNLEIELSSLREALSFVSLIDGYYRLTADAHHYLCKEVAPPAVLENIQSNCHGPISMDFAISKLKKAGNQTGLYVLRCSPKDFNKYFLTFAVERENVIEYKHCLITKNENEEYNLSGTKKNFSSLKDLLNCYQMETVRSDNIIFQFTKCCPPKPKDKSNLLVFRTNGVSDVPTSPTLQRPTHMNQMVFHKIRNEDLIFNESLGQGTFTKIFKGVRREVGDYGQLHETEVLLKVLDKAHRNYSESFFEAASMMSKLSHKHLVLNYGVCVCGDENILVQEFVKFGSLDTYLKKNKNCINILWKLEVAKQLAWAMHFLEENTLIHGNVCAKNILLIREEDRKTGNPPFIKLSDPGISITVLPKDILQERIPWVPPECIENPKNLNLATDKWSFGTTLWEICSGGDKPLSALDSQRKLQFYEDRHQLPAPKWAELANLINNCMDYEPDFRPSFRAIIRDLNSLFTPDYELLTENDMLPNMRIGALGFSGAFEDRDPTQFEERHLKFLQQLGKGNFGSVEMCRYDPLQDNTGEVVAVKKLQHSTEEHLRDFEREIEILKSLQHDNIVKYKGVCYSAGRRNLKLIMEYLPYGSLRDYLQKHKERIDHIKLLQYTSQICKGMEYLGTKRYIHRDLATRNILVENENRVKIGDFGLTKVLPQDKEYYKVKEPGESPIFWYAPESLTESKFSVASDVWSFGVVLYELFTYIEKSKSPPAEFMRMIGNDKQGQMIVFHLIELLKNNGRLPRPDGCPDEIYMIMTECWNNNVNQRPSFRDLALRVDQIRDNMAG
# T1 sequence (P49841 whole entry): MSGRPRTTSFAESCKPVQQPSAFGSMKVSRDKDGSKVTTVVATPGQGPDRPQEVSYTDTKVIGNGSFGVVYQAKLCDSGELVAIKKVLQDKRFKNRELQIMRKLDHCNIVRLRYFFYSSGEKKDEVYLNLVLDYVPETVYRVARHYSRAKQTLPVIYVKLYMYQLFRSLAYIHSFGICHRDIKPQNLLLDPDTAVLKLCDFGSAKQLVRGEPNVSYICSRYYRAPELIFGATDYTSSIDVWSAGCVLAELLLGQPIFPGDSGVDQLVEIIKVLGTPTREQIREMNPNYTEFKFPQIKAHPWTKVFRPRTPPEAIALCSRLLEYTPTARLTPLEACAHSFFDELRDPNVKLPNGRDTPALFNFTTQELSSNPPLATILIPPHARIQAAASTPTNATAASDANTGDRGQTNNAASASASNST
# T4 sequence (P36888 27-993): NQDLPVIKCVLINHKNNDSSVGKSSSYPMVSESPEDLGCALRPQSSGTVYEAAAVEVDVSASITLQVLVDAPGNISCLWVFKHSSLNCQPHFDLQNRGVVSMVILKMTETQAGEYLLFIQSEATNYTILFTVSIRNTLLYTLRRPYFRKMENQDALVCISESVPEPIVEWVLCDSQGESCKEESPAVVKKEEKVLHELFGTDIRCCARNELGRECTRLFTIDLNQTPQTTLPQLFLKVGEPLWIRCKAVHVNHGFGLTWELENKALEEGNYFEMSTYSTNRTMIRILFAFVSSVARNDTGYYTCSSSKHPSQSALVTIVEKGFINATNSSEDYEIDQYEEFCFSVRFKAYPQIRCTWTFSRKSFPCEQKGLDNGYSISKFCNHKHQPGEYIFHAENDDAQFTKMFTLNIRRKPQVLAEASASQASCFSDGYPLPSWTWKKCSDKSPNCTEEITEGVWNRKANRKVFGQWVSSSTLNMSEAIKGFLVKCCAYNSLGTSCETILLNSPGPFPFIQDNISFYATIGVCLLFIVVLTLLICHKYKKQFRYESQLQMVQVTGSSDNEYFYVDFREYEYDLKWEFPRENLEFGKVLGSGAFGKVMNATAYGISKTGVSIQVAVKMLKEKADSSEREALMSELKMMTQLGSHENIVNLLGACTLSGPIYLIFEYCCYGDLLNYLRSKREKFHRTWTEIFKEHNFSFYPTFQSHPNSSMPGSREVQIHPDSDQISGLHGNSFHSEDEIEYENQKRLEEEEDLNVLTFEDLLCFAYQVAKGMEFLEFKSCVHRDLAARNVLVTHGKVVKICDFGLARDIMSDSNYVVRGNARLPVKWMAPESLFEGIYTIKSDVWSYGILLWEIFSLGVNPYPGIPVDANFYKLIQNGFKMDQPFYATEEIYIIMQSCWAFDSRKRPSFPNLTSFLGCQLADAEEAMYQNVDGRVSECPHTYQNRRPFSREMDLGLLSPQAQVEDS
# T2 sequence (P35968 20-1356): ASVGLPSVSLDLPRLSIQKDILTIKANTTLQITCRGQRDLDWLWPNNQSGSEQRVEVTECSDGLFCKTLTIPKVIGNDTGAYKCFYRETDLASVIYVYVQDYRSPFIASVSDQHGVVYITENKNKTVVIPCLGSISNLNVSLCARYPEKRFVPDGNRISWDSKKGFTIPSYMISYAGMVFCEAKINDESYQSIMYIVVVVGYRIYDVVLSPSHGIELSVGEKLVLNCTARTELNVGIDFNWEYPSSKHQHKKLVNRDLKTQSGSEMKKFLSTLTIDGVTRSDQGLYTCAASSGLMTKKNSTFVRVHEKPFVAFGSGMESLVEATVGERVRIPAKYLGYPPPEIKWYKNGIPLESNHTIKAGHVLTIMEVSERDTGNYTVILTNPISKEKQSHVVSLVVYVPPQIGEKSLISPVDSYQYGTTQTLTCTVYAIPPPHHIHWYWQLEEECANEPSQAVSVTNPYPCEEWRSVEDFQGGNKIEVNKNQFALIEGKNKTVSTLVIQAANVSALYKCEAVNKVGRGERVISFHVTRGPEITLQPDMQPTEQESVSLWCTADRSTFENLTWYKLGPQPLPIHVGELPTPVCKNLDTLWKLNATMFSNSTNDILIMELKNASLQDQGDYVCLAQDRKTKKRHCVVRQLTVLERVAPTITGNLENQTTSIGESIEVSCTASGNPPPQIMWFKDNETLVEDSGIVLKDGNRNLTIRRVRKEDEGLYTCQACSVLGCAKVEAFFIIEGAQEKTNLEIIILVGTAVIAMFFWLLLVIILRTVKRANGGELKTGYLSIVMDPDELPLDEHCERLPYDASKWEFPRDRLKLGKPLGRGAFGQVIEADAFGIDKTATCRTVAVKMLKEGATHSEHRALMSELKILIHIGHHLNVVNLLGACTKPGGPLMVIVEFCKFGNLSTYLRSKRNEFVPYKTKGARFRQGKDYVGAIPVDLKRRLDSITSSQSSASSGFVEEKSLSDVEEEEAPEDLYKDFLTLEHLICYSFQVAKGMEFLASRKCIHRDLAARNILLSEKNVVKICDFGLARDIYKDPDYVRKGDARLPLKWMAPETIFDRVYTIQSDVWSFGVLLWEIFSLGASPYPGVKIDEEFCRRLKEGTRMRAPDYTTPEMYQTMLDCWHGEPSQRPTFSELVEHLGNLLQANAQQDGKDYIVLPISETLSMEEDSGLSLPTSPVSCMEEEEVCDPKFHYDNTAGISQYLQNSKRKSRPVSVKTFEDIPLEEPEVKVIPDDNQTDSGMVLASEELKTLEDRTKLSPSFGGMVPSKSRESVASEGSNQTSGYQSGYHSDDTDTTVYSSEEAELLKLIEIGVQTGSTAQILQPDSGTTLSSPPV
# T5 sequence (P23443 whole entry): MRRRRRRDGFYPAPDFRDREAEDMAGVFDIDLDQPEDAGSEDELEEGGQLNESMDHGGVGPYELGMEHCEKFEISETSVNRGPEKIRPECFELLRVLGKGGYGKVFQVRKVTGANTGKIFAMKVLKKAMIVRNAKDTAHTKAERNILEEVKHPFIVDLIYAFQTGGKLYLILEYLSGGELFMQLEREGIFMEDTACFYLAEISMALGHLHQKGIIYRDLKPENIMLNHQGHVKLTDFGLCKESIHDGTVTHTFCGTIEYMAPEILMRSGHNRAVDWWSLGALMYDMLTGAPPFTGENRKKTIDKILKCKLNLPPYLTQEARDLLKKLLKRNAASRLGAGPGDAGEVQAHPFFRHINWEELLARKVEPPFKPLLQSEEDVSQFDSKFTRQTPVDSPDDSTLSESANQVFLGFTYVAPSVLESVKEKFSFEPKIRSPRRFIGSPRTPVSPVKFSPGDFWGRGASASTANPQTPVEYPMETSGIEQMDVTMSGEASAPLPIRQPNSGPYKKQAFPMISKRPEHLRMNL
smiles,measurement,setting,value
CCOc1cc(CC(=O)N[C@@H](CC(C)C)c2ccccc2N2CCCCC2)ccc1C(=O)O [NCGC00016978-04],5mMGluc_INS1E SecretionMod IC50/EC50,INS-1E cells [1],0.02704 µM
same,0.1mMGluc_INS1E SecretionMod Act IC50/EC50,INS-1E cells [2],0.1358 µM
CN1CCc2cc(Cl)c(O)cc2[C@H]2c3ccccc3CC[C@@H]21 [NCGC00092362-02],5mMGluc_INS1E SecretionMod IC50/EC50,INS-1E cells [1],15.3649 µM
same,0.1mMGluc_INS1E SecretionMod Act IC50/EC50,INS-1E cells [2],> 33.33 µM
CCN(CC)CCNC(C(=O)OCCC(C)C)c1ccccc1 (centres unmarked) [NCGC00164526-02],5mMGluc_INS1E SecretionMod IC50/EC50,INS-1E cells [1],24.7717 µM
same,0.1mMGluc_INS1E SecretionMod Act IC50/EC50,INS-1E cells [2],> 33.33 µM
C#CCOC(C(=O)OCCN(C)C)(c1ccccc1)c1ccccc1 [NCGC00164558-02],5mMGluc_INS1E SecretionMod IC50/EC50,INS-1E cells [1],9.257 µM
same,0.1mMGluc_INS1E SecretionMod Act IC50/EC50,INS-1E cells [2],9.666 µM
Cl.NCC1CCC(C(=O)Oc2ccc(CCC(=O)O)cc2)CC1 (centres unmarked) [NCGC00164584-03],5mMGluc_INS1E SecretionMod IC50/EC50,INS-1E cells [1],> 33.33 µM
same,0.1mMGluc_INS1E SecretionMod Act IC50/EC50,INS-1E cells [2],> 33.33 µM
CCCCCCCCCCCCCC[N+](C)(C)C.[Br-] [NCGC00166121-03],WntCondMedia_bCatenin C2C12 IC50/EC50,[3],> 20 µM
same,Basal_Viability ATP SW480 IC50/EC50,SW480,0.9328 µM
same,hNCI-H716 GLP1 Secretion IC50/EC50,NCI-H716 cells,18.5931 µM
same,Basal_Viability ATP RKO IC50/EC50,RKO,0.1473 µM
same,mSTC-1 GLP1 Secretion IC50/EC50,STC-1 cell line,> 40 µM
same,hGSK3b LANCE IC50/EC50,hGSK3b,> 20 µM
same,hKDR LANCE IC50/EC50,hKDR,> 20 µM
same,VEGF_ADSC\ECFC Angio CD31 TubeArea IC50/EC50,[4],1.9016 µM
same,Basal_Viability ATP SNU-C1 IC50/EC50,SNU-C1,0.00517 µM
same,Basal_Viability ATP HCT116 IC50/EC50,HCT116,2.287 µM
same,WntCondMedia_Alk Phos C2C12 IC50/EC50,[5],> 20 µM
same,hJAK2 LANCE IC50/EC50,hJAK2,> 20 µM
same,Basal_Viability ATP Colo 320 IC50/EC50,Colo320,2.516 µM
same,hFLT3 LANCE IC50/EC50,hFLT3,> 20 µM
same,Hela CellCycMod PI 2N IC50/EC50,HeLa cells,> 10 µM
same,Hela CellCycMod PI S Phase IC50/EC50,"HeLa cells; assay number 15, S phase",> 10 µM
same,Hela CellCycMod PI 4N IC50/EC50,HeLa cells,> 10 µM
same,Hela CellCycMod PI MI IC50/EC50,HeLa cells,> 10 µM
same,Hela CellCycMod PI Cell Number IC50/EC50,HeLa cells,3.3211 µM
same,Basal_Viability ATP HT-29 IC50/EC50,HT-29,1.32 µM
same,Basal_Viability ATP DLD-1 IC50/EC50,DLD-1,0.4746 µM
same,VEGF_ADSC\ECFC Angio Hoechst NucArea IC50/EC50,[6],6.684 µM
same,GSK3b inh pretreated_Viability ATP HCT116 IC50/EC50,[7],0.754 µM
same,hp70S6K1 LANCE IC50/EC50,hp70S6K1 (RPS6KB1),> 20 µM
CN(C)CCOC(c1ccc(Cl)cc1)c1ccccn1 (centres unmarked) [NCGC00166141-06],5mMGluc_INS1E SecretionMod IC50/EC50,INS-1E cells [1],21.3759 µM
same,0.1mMGluc_INS1E SecretionMod Act IC50/EC50,INS-1E cells [2],> 33.33 µM
Cc1ccc([N+](=O)[O-])[c]2c1[O][Hg]2 [NCGC00249897-01],WntCondMedia_bCatenin C2C12 IC50/EC50,[3],1.5133 µM
same,Basal_Viability ATP SW480 IC50/EC50,SW480; basal,1.1294 µM
same,hNCI-H716 GLP1 Secretion IC50/EC50,NCI-H716 cells,9.871 µM
same,mSTC-1 GLP1 Secretion IC50/EC50,STC-1 cell line,0.0972 µM
same,hGSK3b LANCE IC50/EC50,hGSK3b,8.37 µM
same,hKDR LANCE IC50/EC50,hKDR,16.8 µM
same,VEGF_ADSC\ECFC Angio CD31 TubeArea IC50/EC50,[4],0.6678 µM
same,5mMGluc_INS1E SecretionMod IC50/EC50,INS-1E cells [1],> 33.33 µM
same,Basal_Viability ATP SNU-C1 IC50/EC50,SNU-C1; basal,0.2022 µM
same,Basal_Viability ATP HCT116 IC50/EC50,HCT116,2.8299 µM
same,WntCondMedia_Alk Phos C2C12 IC50/EC50,[5],0.1552 µM
same,hJAK2 LANCE IC50/EC50,hJAK2,> 20 µM
same,Basal_Viability ATP Colo 320 IC50/EC50,Colo320; basal,0.935 µM
same,hFLT3 LANCE IC50/EC50,hFLT3,10.38 µM
same,Hela CellCycMod PI 2N IC50/EC50,HeLa cells,> 10 µM
same,Hela CellCycMod PI 4N IC50/EC50,HeLa cells,> 10 µM
same,Hela CellCycMod PI MI IC50/EC50,HeLa cells,1.2179 µM
same,Hela CellCycMod PI Cell Number IC50/EC50,HeLa cells,0.3851 µM
same,Basal_Viability ATP HT-29 IC50/EC50,HT-29; basal,1.4429 µM
same,Basal_Viability ATP DLD-1 IC50/EC50,DLD-1; basal,1.6221 µM
same,VEGF_ADSC\ECFC Angio Hoechst NucArea IC50/EC50,[6],1.087 µM
same,GSK3b inh pretreated_Viability ATP HCT116 IC50/EC50,[7],> 2.2222 µM
same,hp70S6K1 LANCE IC50/EC50,hp70S6K1 (RPS6KB1),> 20 µM
